Assay results taken from patent US20040142929A1, “Derivatives of aryl (or heteroaryl) azolylcarbinoles for the treatment of urinary incontinence” (priority 2001, published 2004).

Assays:
[1] = test system: Urinary incontinence secondary to overactive bladder (detrusor hyperreflexia or instability) or idiopathic urge incontinence; assay: Clinical Study A: placebo controlled clinical trial, 84 days; assay type: in vivo, human
Description: (§1) In a placebo controlled clinical trial 79 patients were randomised. Patients from both genders aged between 18 and 80 years (both inclusive) were included. They had Urinary incontinence secondary to overactive bladder (detrusor hyperreflexia or instability) or idiopathic urge incontinence confirmed by the medical history and urodynamic study.
The patients were treated within one group with (±)-5-{α-[2-(dimethylamino)ethoxy]benzyl}-1-methyl-1H-pirazole citrate, 400 mg, twice a day, tablets for oral administration, or within another group with placebo in matching tablets, twice a day, for administration by oral route. The patients were treated for 84 days.
Efficacy was measured by the difference from baseline in the mean number of leakages, micturitions, urgencies and voidings/24 hours as provided by a 7-day frequency-volume chart in the end of study visit
The primary efficacy analysis was based on the PP population. The treatment groups were compared with respect to the treatment effect, defined as the difference between treatment groups for changes from baseline in the number of voidings per 24 hours.
(§2) As an addition the percentage of responders was compared based on an analysis of the number of patients having <8 voidings/day or experienced complete dryness or both. The statistical significance was determined.

[2] = test system: Urinary incontinence secondary to overactive bladder (detrusor hyperreflexia or instability) or idiopathic urge incontinence; assay: Clinical Study B: placebo controlled clinical trial, 84 days; assay type: in vivo, human
Description: as §1, with “135” for “79”
The patients were treated within one group with […]{α-[2-(dimethylamino)ethoxy]benzyl}-1-methyl-1H-pirazole citrate, 230 mg b.i.d, capsules (meaning 400 mg (±)-5-{α-[2-(dimethylamino)ethoxy]benzyl}-1-methyl-1H-pirazole citrate/capsule) for oral administration (twice daily) or within another group with placebo, matching capsules, […], for administration by oral route. The patients were treated for 84 days.
Efficacy was measured by the difference from baseline in the mean number of voidings/24 hours as provided by a 7-day frequency-volume chart in the end of study visit.
The primary efficacy analysis was based on the PP population. […]
as §2

[3] = patients, 400 mg citrate twice a day, oral tablets, 84 days, difference from baseline, 7-day frequency-volume chart

| Structure (SMILES) | improving urge incontinence caused by overactive bladder: efficacy variables compared to placebo ([1]; citrate 400 mg twice a day (equivalent to 230 mg base twice a day), oral route) | mean number of daily leakages compared with placebo [1, 3] | mean number of daily micturitions compared with placebo [1, 3] | mean number of daily urgencies compared with placebo [1, 3] | mean number of daily voidings compared with placebo [1, 3] | percentage of responders (patients having <8 voidings/day or complete dryness or both) versus placebo ([1]; patients, 400 mg citrate twice a day, oral, 84 days, FIG. 1) | percentage of responders (patients having <8 voidings/day or complete dryness or both) versus placebo ([2]; 230 mg b.i.d., oral, FIG. 2) | reduction of the mean number of voidings per 24 hours (change from baseline) ([2]; patients, 230 mg b.i.d. (400 mg citrate/capsule), oral capsules, PP population) [units] |
| --- | --- | --- | --- | --- | --- | --- | --- | --- |
| CN(C)CCOC(c1ccccc1)c1ccnn1C.O=C(O)CC(O)(CC(=O)O)C(=O)O (racemic) [(±)-5-{α-[2-(dimethylamino)ethoxy]benzyl}-1-methyl-1H-pirazole citrate] | statistical and clinically significant improvements compared to placebo in the majority of efficacy variables considered | significant reduction | significant reduction | significant reduction | significant reduction | – | – | – |
| CN(C)CCOC(c1ccccc1)c1ccnn1C.O=C(O)CC(O)(CC(=O)O)C(=O)O (racemic) [(±)-5-{α-[2-(dimethylamino)ethoxy]benzyl}-1-methyl-1H-pirazole] | – | – | – | – | – | superior to placebo | superior to placebo | 5.83 |
